Reference: patent US7799757B2, “Analogs of parathyroid hormone and PTH-related protein as bone anabolic agents” (priority 2002, dated 2010)
Non-standard residues stand in square brackets, D forms with d. Residues, ends and D or L forms follow the SMILES beside them. 2Nal = N[C@@H](Cc1ccc2ccccc2c1)C(=O)O; Nle = CCCC[C@H](N)C(=O)O; βAla = NCCC(=O)O

Experiments:
[1] = target: T1, recombinant hPTH1-receptor (Homo sapiens, UniProt Q03431); experiment: Radioreceptor competition binding, 125I-PTH(1-34), HEK293/C21 cells; settings: 125I-PTH(1-34) ~0.1 nM, 2 h at room temperature
T1 construct: expressed in transfected cells
T1 sequence (Q03431 27-593): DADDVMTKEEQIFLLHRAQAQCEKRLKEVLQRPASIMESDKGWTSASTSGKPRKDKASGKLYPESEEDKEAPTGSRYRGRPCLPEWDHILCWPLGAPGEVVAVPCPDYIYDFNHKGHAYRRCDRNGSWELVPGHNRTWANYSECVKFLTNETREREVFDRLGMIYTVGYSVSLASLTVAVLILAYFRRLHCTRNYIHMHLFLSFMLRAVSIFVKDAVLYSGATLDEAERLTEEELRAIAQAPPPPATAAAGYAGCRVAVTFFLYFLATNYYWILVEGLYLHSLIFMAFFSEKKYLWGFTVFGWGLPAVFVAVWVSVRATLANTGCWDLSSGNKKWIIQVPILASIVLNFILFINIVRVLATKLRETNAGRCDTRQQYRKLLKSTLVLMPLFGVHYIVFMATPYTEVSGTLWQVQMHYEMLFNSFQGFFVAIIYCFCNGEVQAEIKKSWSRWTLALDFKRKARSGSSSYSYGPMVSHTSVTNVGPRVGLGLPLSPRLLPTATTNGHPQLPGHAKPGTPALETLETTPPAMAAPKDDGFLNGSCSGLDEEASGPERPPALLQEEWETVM
Experimental: (§1) Human embryonic kidney (HEK293) cells, stably transfected with recombinant hPTH1-receptor (HEK293/C21 cell line, ˜400,000 receptors/cell) (Pines, M., Adams, A. E., Stueckle, S., Bessalle, R., Rashti-Behar, V., Chorev, M., Rosenblatt, M., and Suva, L. J. Endocrinology 1994, 135, 1713-1716), were maintained in D-MEM medium supplemented with 10% fetal bovine serum and […] glutamine at 37° C. in a humidified atmosphere of 95% air/5% CO2. The medium was changed every 3-4 days, and the cells were subcultured every week. Ligand stimulated adenylyl cyclase activity and radioreceptor competition binding assays were performed on confluent cultures, 1-3 days after a change of medium.
[Nle^8,18,Nal^23,Tyr^34]bPTH(1-34)-NH2 was radioiodinated and the crude material was purified as previously described (Roubini, E., Duong, L. T., Gibbons, S. W., Leu, C. T., Caulfield, M. P., Chorev, M., and Rosenblatt, M. Biochemistry 1992, 31, 4026-4033). […] The pure mono-radioiodinated peptide was isolated on an analytical RP-HPLC Vydac Protein C18 column (The Separation Group, Hesperia, Calif.) employing a linear gradient of 36-42% B in A for 30 min (A, 0.1% TFA in water; B, 0.1% TFA in acetonitrile) at a flow rate of 1 mL/min, and monitored at 220 nm. […]

[2] = target: T1, recombinant hPTH1-receptor; experiment: Stimulation of adenylyl cyclase activity in HEK293/C21 cells; assay type: cell-based; settings: 1 mM IBMX, 5 min incubation, read-out: EC50 (half maximal stimulation of adenylate cyclase)
Experimental: as §1
Stimulation of adenylyl cyclase activity by the PTH(1-34) analogues was assayed in stably transfected HEK293/C21 as described before (Nakamoto, C., Behar, V., Chin, K. R., Adams, A. E.; Suva, L. J.; Rosenblatt, M.; Chorev, M. Biochemistry 1995, 34, 10546-10552.). Shortly, cells were grown to confluence in 24-well culture dishes. They were then incubated with 0.5 μCi [^3H]adenine in fresh PBS supplemented medium at 37° C. for 2 h and further treated with 1 mM 3-isobutyl-1-methylxantine (IBMX) in fresh medium for 15 min at 37° C. […] Radioactivity was measured in a liquid scintillation counter (Beciman LS6000IC liquid scintillation counter, Downers Grove, Ill.).

- IC50 [1]: > 1000 nM
- EC50 [2]: 13.82 ± 0.02 nM
Compound: CCCC[C@H](NC(=O)[C@H](Cc1ccccc1)NC(=O)[C@H](CCC(N)=O)NC(=O)[C@@H](NC(=O)[C@H](CCC(=O)O)NC(=O)[C@H](CO)NC(=O)[C@@H](NC(=O)[C@H](C)N)C(C)C)[C@@H](C)CC)C(=O)N[C@@H](Cc1c[nH]cn1)C(=O)N[C@@H](CC(N)=O)C(=O)N[C@@H](CC(C)C)C(=O)NCC(=O)N[C@@H](CCCCN)C(=O)N[C@@H](Cc1c[nH]cn1)C(=O)N[C@@H](CC(C)C)C(=O)N[C@@H](CO)C(=O)N[C@@H](CO)C(=O)NCCC(=O)NCCC(=O)N[C@@H](CCCNC(=N)N)C(=O)N[C@H](C(=O)N[C@@H](CCC(=O)O)C(=O)N[C@@H](Cc1ccc2ccccc2c1)C(=O)N[C@@H](CC(C)C)C(=O)N[C@@H](CCCNC(=N)N)C(=O)N[C@@H](CCCCN)C(=O)N[C@@H](CCCCN)C(=O)N[C@@H](CC(C)C)C(=O)N[C@@H](CCC(N)=O)C(=O)N[C@@H](CC(=O)O)C(=O)N[C@H](C(=O)N[C@@H](Cc1c[nH]cn1)C(=O)N[C@@H](CC(N)=O)C(=O)N[C@@H](Cc1ccc(O)cc1)C(N)=O)C(C)C)C(C)C [SEQ ID NO: 14, [Nle^8,β-Ala^18,19,Nal^23,Tyr^34]bPTH(1–34)NH2] (H-AVSEIQF[Nle]HNLGKHLSS[βAla][βAla]RVE[2Nal]LRKKLQDVHNY-NH2; N-terminus assumed)
